Experimental findings from patent publication US12559529B2, “NPY2 receptor agonists” (Boehringer Ingelheim International GmbH, priority 2019, dated 2026) are described below.

One experiment deals with T1, human NPY4 receptor (Homo sapiens, UniProt P50391).
T1 construct: expressed in transfected cells; host or cells: CHO-K1
The experiment is described as follows: HTRF cAMP Gi assay, hY4R. In kind it is cell-based. The note with it: Table 4; CHO-K1 cells.

The next experiment deals with T2, human NPY5 receptor (Homo sapiens, UniProt Q15761).
T2 sequence (Q15761 1-445): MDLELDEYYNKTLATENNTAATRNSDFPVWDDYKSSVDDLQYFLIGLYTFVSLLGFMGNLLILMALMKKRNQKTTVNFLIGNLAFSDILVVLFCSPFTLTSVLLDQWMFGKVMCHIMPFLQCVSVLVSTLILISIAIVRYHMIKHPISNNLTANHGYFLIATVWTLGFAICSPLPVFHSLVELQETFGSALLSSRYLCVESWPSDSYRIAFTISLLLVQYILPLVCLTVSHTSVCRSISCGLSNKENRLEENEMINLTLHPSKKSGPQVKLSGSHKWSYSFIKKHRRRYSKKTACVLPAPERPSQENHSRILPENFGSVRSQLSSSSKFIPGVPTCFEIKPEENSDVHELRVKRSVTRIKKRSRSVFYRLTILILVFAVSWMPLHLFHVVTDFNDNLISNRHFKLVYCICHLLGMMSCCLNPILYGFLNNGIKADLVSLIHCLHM
The experiment in a line: HTRF cAMP Gi assay, hY5R. A general note: In TR-FRET formats the signal depends on donor and acceptor labels being close together.

The target of experiment [1] is T3, Human Neuropeptide Y2 Receptor (Homo sapiens, UniProt P49146).
T3 construct: purchased CHEMICON HTS066M
T3 sequence (P49146 1-381): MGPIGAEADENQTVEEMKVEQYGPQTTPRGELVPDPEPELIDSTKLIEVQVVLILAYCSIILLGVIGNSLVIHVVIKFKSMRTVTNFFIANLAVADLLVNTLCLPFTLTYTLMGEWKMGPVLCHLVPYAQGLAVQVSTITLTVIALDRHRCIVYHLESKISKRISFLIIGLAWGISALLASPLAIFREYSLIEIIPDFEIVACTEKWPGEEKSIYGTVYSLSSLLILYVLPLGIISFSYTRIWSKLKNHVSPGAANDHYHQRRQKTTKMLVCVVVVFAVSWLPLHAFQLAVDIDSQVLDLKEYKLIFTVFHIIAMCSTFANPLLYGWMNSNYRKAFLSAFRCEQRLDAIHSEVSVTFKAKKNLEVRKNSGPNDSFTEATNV
The experiment in a line: Activity (RLB) after incubation in solutions at different pH values. In kind it is binding. The note with it: apparent Ki of filtrate after 2 h in buffer. Here is the method: The filtration RLB assay was carried out in 96-well plates in a final volume of 100 μl per well. Freeze-dried test peptides were dissolved in 100% dimethyl sulfoxide (DMSO) to stock solutions of 1 mM and serial dilutions were performed in assay buffer (50 mM HEPES, 5 mM MgCl2, 1 mM CaCl2), pH 7.4) containing 0.2% ovalbumin. […] Next, 80 μL membranes (HTS066M, ChemiSCREEN™ Human Neuropeptide Y2 Receptor Membrane Preparation, CHEMICON) were added to each well to give a final protein concentration of 0.5 μg/well. The plates were sealed and incubated at room temperature for 2 hours in a plate shaker set at 400 rpm. The incubation was stopped by vacuum filtration onto 0.5% poly-ethylene amine (PEI) presoaked GF/C filters using a 96-well FilterMate™ harvester (Perkin Elmer) followed by four washes with 300 μl/well ice-cold wash buffer (50 mM HEPES, 500 mM NaCl, pH7.4). Filter plates were then dried for 60 min at room temperature and the bottom of the plates was sealed with backing tape UniFilter-96. Finally, 50 μl/well scintillation counter cocktail (Microscint20, Packard) was added and the radioactivity was counted in the Packard TopCount NXT scintillation counter. IC50 values (the half maximal inhibitory concentration of the agonist) were calculated by nonlinear regression analysis of sigmoidal dose-response curves.
Peptides (as TFA salts) were weighed out in a filter unit (Mini-UniPrep Syringeless Filter 0.45 μm, Whatman), and 0.1 M sodium diphosphate buffer at pH 6.4 or 7.4, respectively, or 0.2 M TRIS buffer at pH 8.3 was added to achieve 10 mg/ml final concentration. The peptide was (partially) dissolved by shaking the filter unit horizontally at approx. 400 rpm for 2 hours at room temperature. The sample was filtered to remove any insoluble particles.

The target of the next experiment is T4, human NPY1 receptor (Homo sapiens, UniProt P25929).
T4 construct: expressed in transfected cells; host or cells: CHO-K1
T4 sequence (P25929 1-384): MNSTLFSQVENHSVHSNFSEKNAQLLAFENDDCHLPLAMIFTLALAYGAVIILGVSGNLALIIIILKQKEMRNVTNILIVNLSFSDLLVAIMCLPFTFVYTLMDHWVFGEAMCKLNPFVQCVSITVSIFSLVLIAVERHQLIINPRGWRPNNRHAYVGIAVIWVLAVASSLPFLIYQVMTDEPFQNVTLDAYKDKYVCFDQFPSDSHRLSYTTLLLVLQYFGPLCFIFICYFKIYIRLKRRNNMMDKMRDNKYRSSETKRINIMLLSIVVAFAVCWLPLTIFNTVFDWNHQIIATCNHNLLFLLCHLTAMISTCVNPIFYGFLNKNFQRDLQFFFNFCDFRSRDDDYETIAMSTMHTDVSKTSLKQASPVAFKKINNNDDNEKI
The experiment is described as follows: HTRF cAMP Gi assay, hY1R. Format: cell-based. The conditions noted are these: Table 4; CHO-K1 cells.

The target of experiment [2] is T3, Human Neuropeptide Y2 Receptor. The experiment in a line: Radioligand binding competition assay (RLB). The method in brief: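 Filtration format; Y2R membrane prep 0.5 μg/well; buffer 50 mM HEPES/5 mM MgCl2/1 mM CaCl2/0.2% ovalbumin pH 7.4; 2 h RT, shaking. Harvest on PEI-soaked GF/C, ice-cold HEPES/500 mM NaCl washes, scintillation count. IC50 by nonlinear fit.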

In the next experiment the target is T5, human NPY2 receptor (Homo sapiens, UniProt P49146).
T5 sequence (P49146 1-381): T3 sequence (P49146 1-381)
The experiment in a line: HTRF cAMP Gi assay, hY2R.

Where [3] appears, read: pH6.1-6.2, assumed 10 mg/ml, read-out: RLB 6 (pH6.1-6.2).
Setting [4] is: Table 3, human 125I-PYY (1-36) 0.02 nM, Y2 receptor membranes, read-out: Ki.

T1 sequence (P50391 whole entry): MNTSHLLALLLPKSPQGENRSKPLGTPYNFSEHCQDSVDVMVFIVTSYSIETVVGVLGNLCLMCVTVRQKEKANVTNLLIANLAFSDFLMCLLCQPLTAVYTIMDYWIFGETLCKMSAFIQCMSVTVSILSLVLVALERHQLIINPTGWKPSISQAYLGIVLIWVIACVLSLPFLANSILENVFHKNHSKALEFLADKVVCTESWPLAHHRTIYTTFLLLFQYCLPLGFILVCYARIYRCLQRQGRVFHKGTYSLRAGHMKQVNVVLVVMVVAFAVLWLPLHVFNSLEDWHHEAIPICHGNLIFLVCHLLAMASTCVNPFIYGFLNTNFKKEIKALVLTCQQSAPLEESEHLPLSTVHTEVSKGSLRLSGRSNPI
Protocol for human NPY2 receptor: Briefly, the production of intracellular cAMP will generate a competition between unlabeled cAMP and exogenously added d2-cAMP for anti-cAMP antibodies conjugated to cryptate. CHO-K1 cells stably expressing the human NPY1, NPY2, NPY4 and NPY5 receptors were used with the cells brought to life from a frozen stock immediately before assay performance. 2000 cells per well were applied for all four NPY receptor subtype assays. A 384-well format was used applying a total volume of 20 μl using 5 μl cells, 2.5 μl peptide agonist, 2.5 μl forskolin and 5 μl of each of the fluorophores. […] Concentration-response evaluation of compounds was performed with 11 concentrations of agonist peptides (covering 3 decades). EC50 values were calculated by nonlinear regression using sigmoid concentration-response with variable slope.

As to `CC[C@H](C)[C@H](NC(=O)[C@H](CCC(=O)O)NC(=O)[C@H](CCC(=O)O)NC(=O)[C@@H]1CCCN1C(=O)[C@@H](NC(=O)[C@H](C)NC(=O)[C@H](CC(=O)O)NC(=O)[C@H](CCC(=O)O)NC(=O)[C@H](CCC(=O)O)NC(=O)[C@@H]1CCCN1C(=O)[C@H](CCCCNC(=O)COCCOCCNC(=O)COCCOCCNC(=O)CC[C@H](NC(=O)CCCCCCCCCCCCCCCCC(=O)O)C(=O)O)NC(=O)[C@H](CCC(=O)O)NC(=O)[C@@H]1CCCN1C(=O)[C@H](C)NC(=O)CC(C)C)[C@@H](C)O)C(=O)N[C@@H](CCC(N)=O)C(=O)N[C@@H](CCCNC(=N)N)C(=O)N[C@@H](Cc1ccc(O)cc1)C(=O)N[C@@H](Cc1ccc(O)cc1)C(=O)N[C@H](C(=O)N[C@@H](CO)C(=O)N[C@@H](CC(C)C)C(=O)N[C@@H](CCCNC(=N)N)C(=O)N[C@@H](Cc1c[nH]cn1)C(=O)N[C@@H](Cc1ccc(O)cc1)C(=O)N[C@@H](Cc1ccc(O)cc1)C(=O)N[C@@H](CC(N)=O)C(=O)N[C@@H](Cc1c[nH]c2ccccc12)C(=O)N[C@@H](CC(C)C)C(=O)N[C@H](C(=O)N[C@@H](CCCNC(=N)N)C(=O)N[C@@H](CCC(N)=O)C(=O)N[C@@H](CCCNC(=N)N)C(=O)N[C@@H](Cc1ccc(O)cc1)C(N)=O)[C@@H](C)O)C(C)C` [Compound 171, N{alpha-4}-(3-methylbutanoyl)-N{epsilon-7}-[2-(2-{2-[2-(2-{2-[(4S)-4-carboxy-4-(17-carboxyheptadecanamido)butanamido]ethoxy}ethoxy)acetamido]ethoxy}ethoxy)acetamido]-[4A,7K,9E,13T,17I,18Q,22V,28Y,30W,31L]hPYY (4-36)], the EC50 at human NPY4 receptor, at human NPY5 receptor and at human NPY1 receptor was above 5000 nM throughout. Further, the Ki in experiment [1] (setting [3]) came out at 3 nM.
Take `CC(C)CC(=O)N[C@@H](C)C(=O)N1CCC[C@H]1C(=O)N[C@@H](C)C(=O)N[C@@H](CCCCNC(=O)COCCOCCNC(=O)COCCOCCNC(=O)CC[C@H](NC(=O)CCCCCCCCCCCCCCCCC(=O)O)C(=O)O)C(=O)N1CCC[C@H]1C(=O)N[C@@H](CCC(=O)O)C(=O)N[C@@H](CCC(=O)O)C(=O)N[C@@H](CC(=O)O)C(=O)N[C@@H](C)C(=O)N[C@@H](CO)C(=O)N1CCC[C@H]1C(=O)N[C@@H](CCC(=O)O)C(=O)N[C@@H](CCC(=O)O)C(=O)N[C@@H](CC(C)C)C(=O)N[C@@H](CCC(N)=O)C(=O)N[C@@H](CCCNC(=N)N)C(=O)N[C@@H](Cc1ccc(O)cc1)C(=O)N[C@@H](Cc1ccc(O)cc1)C(=O)N[C@H](C(=O)N[C@@H](CO)C(=O)N[C@@H](CC(C)C)C(=O)N[C@@H](CCCNC(=N)N)C(=O)N[C@@H](Cc1c[nH]cn1)C(=O)N[C@@H](Cc1ccc(O)cc1)C(=O)N[C@@H](Cc1ccc(O)cc1)C(=O)N[C@@H](CC(N)=O)C(=O)N[C@@H](Cc1c[nH]c2ccccc12)C(=O)N[C@@H](CC(C)C)C(=O)N[C@H](C(=O)N[C@@H](CCCNC(=N)N)C(=O)N[C@@H](CCC(N)=O)C(=O)N[C@@H](CCCNC(=N)N)C(=O)N[C@@H](Cc1ccc(O)cc1)C(N)=O)[C@@H](C)O)C(C)C` [Compound 203, N{alpha-4}-(3-methylbutanoyl)-N{epsilon-7}-[2-(2-{2-[2-(2-{2-[(4S)-4-carboxy-4-(17-carboxyheptadecanamido)butanamido]ethoxy}ethoxy)acetamido]ethoxy}ethoxy)acetamido]-[4A,6A,7K,9E,18Q,22V,28Y,30W,31L]hPYY (4-36)]: the Ki in experiment [2] (setting [4]) came to 0.75 nM; in experiment [2] (Table 8, from DMSO stock, read-out: hY2R RLB Ki (nM) DMSO) it was 3 nM; in experiment [1] (setting [3]) it was 4.6 nM; in experiment [1] (pH7.1-7.2, assumed 10 mg/ml, read-out: RLB 7 (pH7.1-7.2)), 11.1 nM.
For the molecule `CC(C)CC(=O)N[C@@H](C)C(=O)N1CCC[C@H]1C(=O)N[C@@H](CCC(=O)O)C(=O)N[C@@H](CCCCNC(=O)COCCOCCNC(=O)COCCOCCNC(=O)CC[C@H](NC(=O)CCCCCCCCCCCCCCCCC(=O)O)C(=O)O)C(=O)N1CCC[C@H]1C(=O)N[C@@H](CCC(=O)O)C(=O)N[C@@H](CCC(=O)O)C(=O)N[C@@H](CC(=O)O)C(=O)N[C@@H](C)C(=O)N[C@H](C(=O)N1CCC[C@H]1C(=O)N[C@@H](CCC(=O)O)C(=O)N[C@@H](CCC(=O)O)C(=O)N[C@@H](CC(C)C)C(=O)N[C@@H](CCC(N)=O)C(=O)N[C@@H](CCCCN)C(=O)N[C@@H](Cc1ccc(O)cc1)C(=O)N[C@@H](Cc1ccc(O)cc1)C(=O)N[C@H](C(=O)N[C@@H](CO)C(=O)N[C@@H](CC(C)C)C(=O)N[C@@H](CCCNC(=N)N)C(=O)N[C@@H](Cc1c[nH]cn1)C(=O)N[C@@H](Cc1ccc(O)cc1)C(=O)N[C@@H](Cc1ccc(O)cc1)C(=O)N[C@@H](CC(N)=O)C(=O)N[C@@H](Cc1c[nH]c2ccccc12)C(=O)N[C@@H](CC(C)C)C(=O)N[C@H](C(=O)N[C@@H](CCCNC(=N)N)C(=O)N[C@@H](CCC(N)=O)C(=O)N[C@@H](CCCNC(=N)N)C(=O)N[C@@H](Cc1ccc(O)cc1)C(N)=O)[C@@H](C)O)C(C)C)[C@@H](C)O` [Compound 231, N{alpha-4}-(3-methylbutanoyl)-N{epsilon-7}-[2-(2-{2-[2-(2-{2-[(4S)-4-carboxy-4-(17-carboxyheptadecanamido)butanamido]ethoxy}ethoxy)acetamido]ethoxy}ethoxy)acetamido]-[4A,7K,9E,13T,18Q,19K,22V,28Y,30W,31L]hPYY (4-36)], the EC50 at human NPY4 receptor is above 5000 nM; on human NPY5 receptor, above 5000 nM; on human NPY1 receptor, above 5000 nM; on human NPY2 receptor it was 0.107 nM. Besides, in experiment [2] (setting [4]), the Ki amounted to 1.96 nM.

By EC50 is commonly meant the concentration needed to bring the measured effect to its halfway point. Read a low EC50 as greater potency.
